Data: ChEMBL document CHEMBL1156751, “Design, synthesis, and biological activity of bicyclic radester analogues as Hsp90 inhibitors” (Bioorg Med Chem Lett, 2009)

Columns and labels:
MCF7 [1] = assay: Antiproliferative activity against human MCF7 cells; assay type: functional, cell-based
SK-BR-3 = assay: Antiproliferative activity against human SK-BR-3 cells; assay type: functional, cell-based
MCF7 [2] = assay: Selectivity ratio of IC50 for human SKBr3 cells to IC50 for human MCF7 cells; assay type: functional
[3] = Inhibition of Hsp90 N-terminal assessed as Her2 degradation by Western blotting
[4] = Inhibition of Hsp90 N-terminal assessed as increase in Hsp70 level
[5] = Inhibition of Hsp90 N-terminal assessed as c-RAF degradation by Western blotting
[6] = Inhibition of Hsp90 N-terminal assessed as AKt degradation by Western blotting

SMILES	IC50 (MCF7 [1]) [µM]	IC50 (SK-BR-3) [µM]	Ratio IC50 (MCF7 [2])	Activity [3]	Activity [4]	Activity [5]	Activity [6]
COC1=C(CCC2CCc3c(Cl)c(O)cc(O)c3C2=O)C(=O)C(NC=O)=CC1=O (stereo not drawn)	11.4	12.8	–	–	–	–	–
COC1=C(CCC2Cc3c(Cl)c(O)cc(O)c3C2=O)C(=O)C(NC=O)=CC1=O (stereo not drawn)	15.1	47.3	3	–	–	–	–
COc1c(O)cc(NC=O)c(O)c1CCC1CCc2c(Cl)c(O)cc(O)c2C1=O (stereo not drawn)	9.5	10.5	–	Dose-dependent effect	Dose-dependent effect	Dose-dependent effect	Dose-dependent effect
COC1=C(CC(C)OC(=O)c2cc(Cl)c(O)cc2O)C(=O)C(NC=O)=CC1=O (stereo not drawn) [RADESTER]	13.9	–	–	–	–	–	–
COC1=C(C/C=C2/CCc3c(Cl)c(O)cc(O)c3C2=O)C(=O)C(NC=O)=CC1=O	11.8	12.5	–	–	–	–	–
COc1c(O)cc(NC=O)c(O)c1CCC1Cc2c(Cl)c(O)cc(O)c2C1=O (stereo not drawn)	12.9	42.1	3	Dose-dependent effect	Dose-dependent effect	Dose-dependent effect	Dose-dependent effect
COC1=C(C/C=C2/Cc3c(Cl)c(O)cc(O)c3C2=O)C(=O)C(NC=O)=CC1=O	15.2	40.8	3	–	–	–	–
COC1=C2C[C@@H](C)C[C@H](OC)[C@H](O)[C@@H](C)/C=C(\C)[C@H](OC(N)=O)[C@@H](OC)/C=C\C=C(/C)C(=O)NC(=CC1=O)C2=O [GELDANAMYCIN]	0.0161	0.0158	–	–	–	–	–
C[C@@H]1C[C@H]2O[C@@H]2/C=C\C=C\C(=O)Cc2c(Cl)c(O)cc(O)c2C(=O)O1 [RADICICOL]	0.0477	0.0375	–	–	–	–	–
